Test results from the NIST ThermoML archive (doi:10.1021/je500237g).
± gives the expanded uncertainty stated by the source.

Experiments:
[1] = Liquid; for mass density: 293.15 K, 101.33 kPa, Vibrating tube method; for vapor or sublimation pressure: Ebulliometric method (Recirculating still)
[2] = refractive index (Na D-line) (dimensionless); details: 293.15 K; 101.33 kPa; Liquid; Standard Abbe refractometry

Row | SMILES | mass density [1] [kg/m3] | vapor or sublimation pressure ([1]; 357.6 K) [kPa] | refractive index [2] | vapor or sublimation pressure ([1]; 367.1 K) [kPa] | vapor or sublimation pressure ([1]; 453.7 K) [kPa] | vapor or sublimation pressure ([1]; 346.5 K) [kPa]
1 | CC(C)CO [2-methyl-1-propanol] | 802.7 ± 0.8 | 40 ± 0.2 | 1.3954 ± 0.0007 |  |  | 
2 | CCCCO [butan-1-ol] | 810.4 ± 0.8 |  | 1.3992 ± 0.0007 | 40 ± 0.2 |  | 
3 | CCCCCCCCCCCC [dodecane] | 750 ± 0.8 |  | 1.4218 ± 0.0007 |  | 40 ± 0.2 | 
4 | CCCO [propan-1-ol] | 804.9 ± 0.8 |  | 1.3851 ± 0.0007 |  |  | 40 ± 0.2
